What was measured:
[1] = Incorporation (miscibility) of phenytoin into cyanoacrylate monomers; type: physicochemical
Procedure: According to the present invention, an effective amount of wound healing promoter, is incorporated into the pre-stabilized liquid monomeric cyanoacrylate adhesive compositions to form a homogeneous liquid adhesive product. […] After continuous stirring at this elevated temperature, the mixture of cyanaocrylate monomers and wound healing accelerator becomes a homogeneous solution within about 1 to 2 hours. Standard mixing equipment and techniques are suitable. The 5,5-[…], including phenytoin are readily available from major chemical distributors. […] Table 1 below summarizes the results of incorporating phenytoin into different cyanoacrylate monomer solutions at the elevated temperatures. […] At the elevated temperatures, phenytoin is soluble in both 2-octyl cyanoacrylate (OCA) and n-butyl cyanoacrylate (BCA). It is also interesting to note that phenytoin is more soluble in shorter alkyl chain cyanoacrylate (BCA) than in longer alkyl chain cyanoacrylate (OCA).

[2] = tested on: surgical wounds of periodontal patients; details: topical; cited from earlier work
bacterial load of wounds = details: clinical studies; cited from earlier work

Compound: O=C1NC(=O)C(c2ccccc2)(c2ccccc2)N1 [phenytoin, 5,5-diphenylhydantoin]
- Solubility in 2-octyl cyanoacrylate (OCA) ([1]; elevated temperatures): soluble
- Solubility in n-butyl cyanoacrylate (BCA) ([1]; elevated temperatures): soluble
- Solubility in 2-octyl cyanoacrylate (OCA) monomer ([1]; room temperature): not soluble
- Solubility in BCA compared with OCA ([1]; shorter vs longer alkyl chain cyanoacrylate): more soluble
- Inflammation and pain [2]: reduced inflammation and pain
- Wound healing [2]: accelerated wound healing
- Bacterial load of wounds (bacterial load of wounds): decrease the bacterial load of wounds

From patent US9533071B2, “Wound healing compositions including cyanoacrylate monomers and phenytoin” (Adhezion Biomedical, LLC, priority 2010, dated 2017)
